Assay results as given in patent US8936807B2, “Use of the cathelicidin LL-37 and derivatives thereof for wound healing” (Lipopeptide AB, priority 2003, dated 2015).

Experiments:
Format in all cases: cell-based, human
HaCat cells [1] = test: Proliferation of HaCat cells assessed by flowcytometry and Trypan-Blue; conditions: EGF 1.7 nM, 10% serum
Experimental: HaCat cells were used for these experiments. HaCat cells are an immortalized human keratinocyte cell line (Boukamp et al., J Cell Biol 106:761-771, 1988), which is suitable for experimental keratinocyte research. HaCat cells were cultured in medium (DMEM, +10% FCS and PEST). Both types of cell cultures were treated with synthetic, bioactive LL-37 (lot YS 5253). […] Cells were harvested at different time-points (24 h, 48 h, 72 h and 96 h) and counted by flowcytometry (Becton-Dickinson) and stained by Trypan-Blue to evaluate viability. […] Proliferation and viability were also ascertained by measuring mitochondrial activity (WST-1, Roche, Cook et al. Anal Biochem 179:1-7, 1989).

HaCat cells [2] = test: Proliferation and viability of HaCat cells measured by mitochondrial activity (WST-1); conditions: EGF 1.7 nM, 10% serum, 48 h
Experimental: HaCat cells were used for these experiments. HaCat cells are an immortalized human keratinocyte cell line (Boukamp et al., J Cell Biol 106:761-771, 1988), which is suitable for experimental keratinocyte research. HaCat cells were cultured in medium (DMEM, +10% FCS and PEST). Both types of cell cultures were treated with synthetic, bioactive LL-37 (lot YS 5253). In addition a mixture of LL-37 (114 μg/ml) and CPL-Galactolipid (0.2%) in medium containing serum at either 2 or 10% was added to evaluate the capacity to increase proliferation and inhibit cytotoxicity. Cells were harvested at different time-points (24 h, 48 h, 72 h and 96 h) and counted by flowcytometry (Becton-Dickinson) and stained by Trypan-Blue to evaluate viability. […] Proliferation and viability were also ascertained by measuring mitochondrial activity (WST-1, Roche, Cook et al. Anal Biochem 179:1-7, 1989).

HaCat cells [3] = test: Proliferation of HaCat cells assessed by 3H-Thymidine incorporation; conditions: 10% serum, 96 Hours; for Increased Proliferation (%): vs control 0 μg/ml
Experimental: HaCat cells were cultured in medium (DMEM, +10% FCS and PEST). HaCaT cells were plated in 96 well plates (Falcon, USA) at the concentration of 2000 cells per well. Cells were plated at −48 hours and stimulated with different concen-trations of synthetic LL-37, LL-36, and LL-38 peptide by hour 0 and after 48 hours.
The testing was done in one experiment with 6 wells in each condition. […] of ^3H-Thymidine (THYMIDINE, [METHYL-^3H]-740.0 GBq/mmol (20.00 Ci/mmol) 1.0 ml of Ethanol:Water, 7:3, Perkin Elmer Life Sciences Inc. Boston Mass., USA) was added to each well and incubated for 12-17 hours. Proliferation was evaluated by ^3H-Thymidine incorporation a liquid scintilator (MicroBeta Perkin Elmer Life Sciences Inc. Boston Mass., USA) after 72 and 96 hours.

## EGF: EGF, the golden standard for epithelial cell proliferation, used at 1.7 nM [reference compound]
HaCat cells [1]; 96 h
  Number of Cells (Mean): 42000
HaCat cells [1]; 96 h, vs baseline (-EGF)
  Increased Proliferation (%): 30%
HaCat cells [1]; no lipid, 72 h
  Number of Cells (Mean): 85050
HaCat cells [1]; no lipid, 72 h, vs baseline
  Increased Proliferation (%): 54%
HaCat cells [1]; with lipid 0.2%, 72 h
  Number of Cells (Mean): 87640
HaCat cells [1]; with lipid 0.2%, 72 h, vs baseline
  Increased Proliferation (%): 58%
HaCat cells [2]
  Absorbance: 1.107
HaCat cells [2]; vs baseline (-EGF)
  Increased Proliferation (%): 77%

## LLGDFFRKSKEKIGKEFKRIVQRIKDFLRNLVPRTE (Synthetic Peptide LL-36)
HaCat cells [3]; LL-36 1.00 μg/ml
  Counts Per Minute (Mean): 86253 Counts Per Minute
  Increased Proliferation (%): 24%
HaCat cells [3]; LL-36 5.00 μg/ml
  Counts Per Minute (Mean): 116381 Counts Per Minute
  Increased Proliferation (%): 68%
HaCat cells [3]; LL-36 10.00 μg/ml
  Counts Per Minute (Mean): 70157 Counts Per Minute
  Increased Proliferation (%): 1%
HaCat cells [3]; LL-36 25.00 μg/ml
  Counts Per Minute (Mean): 72674 Counts Per Minute
  Increased Proliferation (%): 5%
HaCat cells [3]; LL-36 50.00 μg/ml
  Counts Per Minute (Mean): 68560 Counts Per Minute
  Increased Proliferation (%): -1%

## LLGDFFRKSKEKIGKEFKRIVQRIKDFLRNLVPRTESS (Synthetic Peptide LL-38)
HaCat cells [3]; LL-38 1.00 μg/ml
  Counts Per Minute (Mean): 82008 Counts Per Minute
  Increased Proliferation (%): 4%
HaCat cells [3]; LL-38 5.00 μg/ml
  Counts Per Minute (Mean): 68694 Counts Per Minute
  Increased Proliferation (%): −13%
HaCat cells [3]; LL-38 10.00 μg/ml
  Counts Per Minute (Mean): 57293 Counts Per Minute
  Increased Proliferation (%): −28%
HaCat cells [3]; LL-38 25.00 μg/ml
  Counts Per Minute (Mean): 54294 Counts Per Minute
  Increased Proliferation (%): −31%
HaCat cells [3]; LL-38 50.00 μg/ml
  Counts Per Minute (Mean): 48701 Counts Per Minute
  Increased Proliferation (%): −39%
